In patent US12686846B2, “Plant sweet and yeast MSF transporter capable of transporting different sugars simultaneously” (THE BOARD OF TRUSTEES OF THE UNIVERSITY OF ILLINOIS, priority 2020, dated 2026):

Columns and labels:
Assay type in all cases: cell-based
[1] = molecular target: T1, Saccharomyces cerevisiae ScGal2 (Gal2) transporter, SEQ ID NO:32 (Saccharomyces cerevisiae, UniProt P13181); assay: C14 labeled sugar uptake assay (zero-trans influx), SR8D8 expressing ScGal2; conditions: initial xylose uptake (20 s), 30° C., pH 6.5; cell wet weight; ± SEM
T1 construct: expressed in transfected cells; host or cells: S. cerevisiae SR8D8 (SR8 with HXT1-7 and GAL2 deleted), plasmid p42K-GPD1p-CYC1t
T1 sequence (P13181 1-574): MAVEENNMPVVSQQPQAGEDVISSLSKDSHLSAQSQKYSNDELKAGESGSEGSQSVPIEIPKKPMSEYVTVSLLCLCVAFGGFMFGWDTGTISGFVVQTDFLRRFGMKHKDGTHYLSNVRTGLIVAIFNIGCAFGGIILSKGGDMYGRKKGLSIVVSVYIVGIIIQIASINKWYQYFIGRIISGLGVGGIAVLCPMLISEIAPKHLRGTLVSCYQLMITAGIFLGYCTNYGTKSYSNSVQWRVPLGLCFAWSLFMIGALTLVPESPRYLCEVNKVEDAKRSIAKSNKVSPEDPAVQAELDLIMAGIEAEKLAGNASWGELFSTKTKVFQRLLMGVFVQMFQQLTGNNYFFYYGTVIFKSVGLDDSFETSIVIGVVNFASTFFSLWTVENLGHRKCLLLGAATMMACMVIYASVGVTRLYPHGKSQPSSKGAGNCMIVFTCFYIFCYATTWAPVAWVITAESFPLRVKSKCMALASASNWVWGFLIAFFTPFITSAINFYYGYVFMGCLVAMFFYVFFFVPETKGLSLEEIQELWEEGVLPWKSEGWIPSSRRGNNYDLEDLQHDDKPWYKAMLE
Method: (§1) FIG. 7A illustrates sugar uptake kinetics by SR8D8. FIG. 7B illustrates sugar uptake kinetics by SR8D8 expressing AtSWEET1. FIG. 7C illustrates sugar uptake kinetics by SR8D8 expressing ScGal2. FIG. 7D illustrates sugar uptake kinetics by SR8D8 expressing AtSWEET7. FIG. 7E illustrates sugar uptake kinetics by SR8D8 expressing LST1_205437. Initial xylose uptake (20 s) was measured at 30° C. over a concentration range of 1 to 500 mM xylose. FIG. 7F illustrates sugar uptake kinetics by SR8D8. FIG. 7G illustrates sugar uptake kinetics by SR8D8 expressing AtSWEET1. FIG. 7H illustrates sugar uptake kinetics by SR8D8 expressing ScGal2. FIG. 7I illustrates sugar uptake kinetics by SR8D8 expressing AtSWEET7. FIG. 7J illustrates sugar uptake kinetics by SR8D8 expressing LST1_205437. Initial glucose uptake (5 s) was measured at 30° C. over a concentration range of 0.2 to 100 mM glucose. Curve fitting for Michaelis-Menten kinetics was applied to data of three independent measurements at each concentration.
(§2) A xylose fermenting S. cerevisiae yeast (SR8) with HXT1-7Δ, GAL2Δ deletions was used for transporter screening and characterization (SR8D8). SR8D8 was grown in YPE medium/plate (10 g/L yeast extract, 20 g/L peptone, and 5 g/L ethanol). […] Biomass was calculated from the OD600 measured using a Biomate 5 UV-visible spectrophotometer (Fisher, NY, USA). All growth rates were measured using a Bioscreen C plate reader system (Growth Curves USA, Piscataway, NJ, USA). […]
(§3) SR8D8 containing the respective plasmid was grown on selective YPE medium to an OD600 of 1-1.5, harvested by centrifugation, and washed twice in ice-cold uptake buffer (100 mM potassium phosphate, pH 6.5). […] Radioactivity was analyzed in a Beckman-Coulter LS6500 multi-purpose liquid scintillation counter (Beckman-Coulter, CA, USA).
(§4) Uptake was measured at sugar concentrations 0.2, 1, 5, 25, and 100 mM for glucose and 1, 5, 25, 66, 100, 200, and 500 mM for xylose. Inhibition of xylose uptake by glucose was measured at 25, 66, and 100 mM xylose with additional 25 and 100 mM unlabeled glucose.

[2] = molecular target: T2, Arabidopsis thaliana AtSWEET7 transporter, wild type (Table 2: SEQ ID NO: 3; FIG. 12: SEQ ID NO:2) (Arabidopsis thaliana, UniProt Q8LBF7); assay: C14 labeled sugar uptake assay (zero-trans influx), SR8D8 expressing AtSWEET7; conditions: initial xylose uptake (20 s), 30° C., pH 6.5; cell wet weight; ± SEM
T2 construct: expressed in transfected cells; host or cells: S. cerevisiae SR8D8 (SR8 with HXT1-7 and GAL2 deleted), plasmid p42K-GPD1p-CYC1t
T2 sequence (Q8LBF7 1-258): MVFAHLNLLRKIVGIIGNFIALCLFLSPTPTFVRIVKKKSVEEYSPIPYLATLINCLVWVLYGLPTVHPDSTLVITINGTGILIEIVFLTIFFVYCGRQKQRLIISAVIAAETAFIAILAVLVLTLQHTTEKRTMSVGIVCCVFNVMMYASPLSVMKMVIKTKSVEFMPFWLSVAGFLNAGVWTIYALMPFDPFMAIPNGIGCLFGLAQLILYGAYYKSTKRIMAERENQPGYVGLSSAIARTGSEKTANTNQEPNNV
Method: as §1, with “Curve fitting for Michaelis-Menten kinetics was applied to data of three independent measurements at each concentration.” left out
as §2, with “(SR8D8).” for “(SR8D8). SR8D8 was grown in YPE medium/plate (10 g/L yeast extract, 20 g/L peptone, and 5 g/L ethanol).”
(§5) Uptake was measured at sugar concentrations 0.2, 1, 5, 25, and 100 mM for glucose and 1, 5, 25, 66, 100, 200, and 500 mM for xylose. […]

[3] = molecular target: T3, Lipomyces starkeyi LST1_205437 transporter, wild type, SEQ ID NO: 4 (Lipomyces starkeyi, UniProt A0A1E3QE37); assay: C14 labeled sugar uptake assay (zero-trans influx), SR8D8 expressing LST1_205437; conditions: initial xylose uptake (20 s), 30° C., pH 6.5
T3 construct: whole-cell 14C sugar uptake
T3 sequence (A0A1E3QE37 1-603): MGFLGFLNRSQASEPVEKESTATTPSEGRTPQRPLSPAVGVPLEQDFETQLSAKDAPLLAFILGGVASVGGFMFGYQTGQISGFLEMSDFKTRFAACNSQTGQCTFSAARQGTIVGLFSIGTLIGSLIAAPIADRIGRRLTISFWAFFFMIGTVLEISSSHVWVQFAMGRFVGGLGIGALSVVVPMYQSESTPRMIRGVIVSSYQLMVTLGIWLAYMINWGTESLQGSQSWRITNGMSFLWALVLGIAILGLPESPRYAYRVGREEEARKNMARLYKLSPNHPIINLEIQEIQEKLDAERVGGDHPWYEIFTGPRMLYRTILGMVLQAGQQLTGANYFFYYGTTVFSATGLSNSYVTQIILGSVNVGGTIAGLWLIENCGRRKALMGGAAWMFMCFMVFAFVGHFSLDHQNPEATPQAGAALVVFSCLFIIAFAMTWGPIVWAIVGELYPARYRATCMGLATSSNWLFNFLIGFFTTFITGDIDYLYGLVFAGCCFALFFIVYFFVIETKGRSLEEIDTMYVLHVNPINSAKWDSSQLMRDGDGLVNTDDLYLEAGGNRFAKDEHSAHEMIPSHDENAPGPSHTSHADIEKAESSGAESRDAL
Method: as §1, §2, §3, §4

[4] = molecular target: T4, Arabidopsis thaliana AtSWEET1 transporter, wild type, SEQ ID NO: 1 (Arabidopsis thaliana, UniProt Q8L9J7); assay: C14 labeled sugar uptake assay, SR8D8 expressing AtSWEET1; conditions: in words
T4 construct: whole-cell 14C sugar uptake
T4 sequence (Q8L9J7 1-247): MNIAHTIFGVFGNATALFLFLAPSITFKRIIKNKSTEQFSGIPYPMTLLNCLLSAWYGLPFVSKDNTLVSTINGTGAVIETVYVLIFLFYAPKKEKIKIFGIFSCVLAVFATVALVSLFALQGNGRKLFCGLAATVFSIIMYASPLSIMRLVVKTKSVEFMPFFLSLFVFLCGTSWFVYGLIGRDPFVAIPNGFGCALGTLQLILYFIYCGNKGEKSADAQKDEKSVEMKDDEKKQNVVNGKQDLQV
Method: as §1, with “Curve fitting for Michaelis-Menten kinetics was applied to data of three independent measurements at each concentration.” left out
as §2, with “(SR8D8).” for “(SR8D8). SR8D8 was grown in YPE medium/plate (10 g/L yeast extract, 20 g/L peptone, and 5 g/L ethanol).”
as §5

Structure (SMILES): OC1OC[C@@H](O)[C@H](O)[C@H]1O (stereo partly drawn) [Xylose, D-xylose]
- Vmax (xylose) [1]: 88.7 ± 10.0 nmol/min/mg
- Vmax (xylose) [2]: 100.9 ± 14.8 nmol/min/mg
- Vmax (xylose) [3]: 76.8 nmol/min/mg
- Vmax (xylose) ([3]; cell wet weight, ± SEM): 76.8 ± 9.0 nmol/min/mg
- xylose transport kinetics [4]: very poor xylose transport kinetics
